Laboratory results as given in article PMC6095626, “Screening of the Pathogen Box for inhibitors with dual efficacy against Giardia lamblia and Cryptosporidium parvum” (PLoS Neglected Tropical Diseases, 2018).

What was measured:
[1] = tested on: G. lamblia trophozoites (luciferase expressing, WBC6); assay: microbe, parasite or virus in culture; format: cell-based, Giardia lamblia; conditions: initial Pathogen Box screen, single concentration 16 µM, inhibition compared to DMSO wells
Outline: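 Incubation ran 24 h at 37 °C under anaerobic conditions, with compound added in equal volume to trophozoites (WBC6, luciferase-expressing, 250,000 cells/mL). Bioluminescence was the read-out, cross-checked by MOXI Z counts on a duplicate plate; metronidazole served as control (1:2 dilutions from 40 μM).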

[2] = tested on: C. parvum (UGA1 Nluc expressing strain in HCT-8 cells); assay: microbe, parasite or virus in culture; format: cell-based, Cryptosporidium parvum; conditions: for Crypto (10 uM) Mean % inhibition: initial Pathogen Box screen, single concentration 10 µM, inhibition compared to DMSO wells
Outline: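 Parasite growth quantified by NanoLuc luminescence from lysed infected HCT-8 cells, with EC50 fitted from dose curves. Compounds, single-dose 10 μM or serially diluted, were added to confluent 48 h monolayers before infection with bleached UGA1 Nluc oocysts.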

Row | SMILES | Giardia (16 uM) Mean % inhibition [1] | Crypto (10 uM) Mean % inhibition [2] | C. parvum cell growth inhibition in the initial screen ([2]; 10 μM, 48 hours) [%] | EC50 ([2]; Nluc C. parvum in HCT-8 cells, 48 hours, read-out: C. parvum EC50) [µM]
1 | Cc1cccc(-c2nc(Nc3ccncn3)c3sccc3n2)n1 [MMV688122] | 33% | 93% |  | 
2 | CCc1nc2ccc(Cl)cn2c1C(=O)NCc1ccc(N2CCC(c3ccc(OC(F)(F)F)cc3)CC2)cc1 [MMV687696] | 26% | 21% |  | 
3 | CCOc1ccc(-c2nc(NC(=O)CS(=O)(=O)c3ccccc3)sc2C)cc1 [MMV007638] | 8% | X* (Mean or standard deviation are negative but not significantly different from the control to be a growth promoter) |  | 
4 | O=C(Nc1ccc(F)c(-c2nc3ncc(-c4ccccc4)cc3[nH]2)c1)N1CCCC1 [MMV688372] | 24% | 48% |  | 
5 | COc1ccc(Oc2ccc([C@@H](C)N(C)c3ncc4c(N)nc(N)nc4n3)cc2)cc1 [MMV690102] | 62% | 77% |  | 
6 | CC(=O)NC[C@@H]1CN(c2ccc(N3CCOCC3)c(F)c2)C(=O)O1 [MMV687803] | X* (Mean or standard deviation are negative but not significantly different from the control to be a growth promoter) | X* (Mean or standard deviation are negative but not significantly different from the control to be a growth promoter) |  | 
7 | O=C(C1CCN(c2cc(-n3cccc3)ncn2)CC1)N1CCc2ccccc2C1 [MMV687172] | X* (Mean or standard deviation are negative but not significantly different from the control to be a growth promoter) | 48% |  | 
8 | Cc1cc(C)nc(-n2nc(C)cc2Nc2ccccc2)n1 [MMV062221] | 35% | 50% |  | 
9 | COc1ccc(N(CCc2cccc(C)n2)C(=O)C2CCCCC2)cc1 [MMV675996] | 16% | X* (Mean or standard deviation are negative but not significantly different from the control to be a growth promoter) |  | 
10 | O=C(Nc1ccc2c(c1)B(O)OC2)c1ccccc1C(F)(F)F [MMV652003] | 14% | 94% |  | 
11 | O=C(c1ccc(F)cc1)N(CCNc1ccccc1)c1ccccc1 [MMV676204] | 28% | 55% |  | 
12 | CCC(C)NC(=O)c1ccc(NC(=O)C2(c3ccccc3)CCCC2)cc1 (stereo not drawn) [MMV146306] | X* (Mean or standard deviation are negative but not significantly different from the control to be a growth promoter) | 37% |  | 
13 | Cc1cc(OCC(=O)NCc2ccccc2)c2cc(Br)ccc2n1 [MMV687747] | 32% | 54% |  | 
14 | O=S(=O)(c1ccc(Cl)cc1)N1CCN(C(=S)NCc2ccco2)CC1 [MMV000858] | 3% | 41% |  | 
15 | Cc1noc(C)c1C(=O)N1CCCC(c2[nH]c3c(C)cccc3c2-c2ccncc2)C1 (stereo not drawn) [MMV020623] | X* (Mean or standard deviation are negative but not significantly different from the control to be a growth promoter) | 43% |  | 
16 | CC(c1cc(Cl)cc(Cl)c1)N(C)c1ncc2c(N)nc(N)nc2n1 (stereo not drawn) [MMV689437] | 46% | X* (Mean or standard deviation are negative but not significantly different from the control to be a growth promoter) |  | 
17 | N#Cc1ccc(-c2cnc(N)c(-c3ccc(C(N)=O)cc3)n2)cc1 [MMV085499] | 61% | 95% | ≥ 95 | 1.93
18 | Nc1c2c(nc3sc4c(c13)CCCC4)CCCC2 [MMV676588] | 26% | 48% |  | 
19 | CC(=O)Nc1ccc(-c2noc(CC3CCCN(Cc4cccc(F)c4C)C3)n2)cc1 (stereo not drawn) [MMV689061] | 17% | 59% |  | 
20 | c1ccc(Oc2ccc(-c3cc(N4CCOCC4)n[nH]3)cc2)cc1 [MMV045105] | 16% | 19% |  | 
21 | Cc1cccc(NC(=O)c2cc(S(=O)(=O)N(C)c3ccc(F)cc3)ccc2Cl)n1 [MMV676528] | X* (Mean or standard deviation are negative but not significantly different from the control to be a growth promoter) | 80% |  | 
22 | Cn1ccnc1CNCCS(=O)(=O)c1cccc(Nc2ccc(-c3cccc(F)c3)cn2)c1 [MMV688466] | 28% | 43% |  | 

Row | SMILES | Giardia (16 uM) Mean % inhibition [1] | Crypto (10 uM) Mean % inhibition [2] | C. parvum cell growth inhibition in the initial screen ([2]; 10 μM, 48 hours) [%] | EC50 ([2]; Nluc C. parvum in HCT-8 cells, 48 hours, read-out: C. parvum EC50) [µM]
23 | Cc1ccc(Oc2ccc(NC(=O)CNc3ccccc3N3CCCC3=O)cc2)cc1 [MMV020512] | X* (Mean or standard deviation are negative but not significantly different from the control to be a growth promoter) | 80% |  | 
24 | C[C@H]1COc2c(N3CCN(C)CC3)c(F)cc3c(=O)c(C(=O)O)cn1c23 [MMV687798] | 61% | 50% |  | 
25 | CCC(Sc1nc2ccccc2o1)C(=O)Nc1nccs1 (stereo not drawn) [MMV676383] | 88% | 57% |  | 
26 | COc1nc2ccc(Br)cc2cc1[C@@H](c1ccccc1)[C@@](O)(CCN(C)C)c1cccc2ccccc12 [MMV689758] | 62% | 68% |  | 
27 | c1csc(-c2cnc3sc(NCC4CCOCC4)nn23)c1 [MMV010764] | X* (Mean or standard deviation are negative but not significantly different from the control to be a growth promoter) | X* (Mean or standard deviation are negative but not significantly different from the control to be a growth promoter) |  | 
28 | Nc1nc(N)c2c3c(sc2n1)CN(Cc1ccccc1)CC3 [MMV688345] | 16% | X* (Mean or standard deviation are negative but not significantly different from the control to be a growth promoter) |  | 
29 | NC(=O)c1cc(-c2ccsc2)ccc1OCCOc1ccccc1 [MMV687138] | X* (Mean or standard deviation are negative but not significantly different from the control to be a growth promoter) | X* (Mean or standard deviation are negative but not significantly different from the control to be a growth promoter) |  | 
30 | COc1cccc(-n2nnnc2S(=O)(=O)Cc2ccccc2)c1 [MMV676388] | 38% | 67% |  | 
31 | O=C(Cn1ccnc1[N+](=O)[O-])NCc1ccccc1 [MMV688773] | 57% | 55% |  | 
32 | CCS(=O)(=O)N(Cc1ccco1)Cc1cc2ccc(C)cc2[nH]c1=O [MMV676398] | 22% | X* (Mean or standard deviation are negative but not significantly different from the control to be a growth promoter) |  | 
33 | Cc1cc(C)n(-c2ccc(NC(=O)C3CCN(Cc4cnc(C)s4)CC3)cc2)n1 [MMV007625] | 27% | X* (Mean or standard deviation are negative but not significantly different from the control to be a growth promoter) |  | 
34 | Cc1nc(-c2ccccn2)nc(NCCc2ccc(S(C)(=O)=O)cc2)c1Cl [MMV658993] | 11% | X* (Mean or standard deviation are negative but not significantly different from the control to be a growth promoter) |  | 
35 | Cn1ncc2c(N3CCOCC3)nc(NCCc3c[nH]c4ccccc34)nc21 [MMV676382] | 60% | 83% |  | 
36 | CCc1ccc(C(NCc2nc(N)nc(N(C)C)n2)C(C)C)cc1 (stereo not drawn) [MMV1019989] | 4.4% | X* (Mean or standard deviation are negative but not significantly different from the control to be a growth promoter) |  | 
37 | CN1CCN(S(=O)(=O)c2ccc(-c3ccc4c(Nc5ccc6n[nH]nc6c5)ccnc4c3)cc2)CC1 [MMV687246] | 30% | X* (Mean or standard deviation are negative but not significantly different from the control to be a growth promoter) |  | 
38 | Cc1nn(C)cc1C(C)Nc1nncc(-c2ccc(C(F)(F)F)cc2)n1 (stereo not drawn) [MMV019993] | 22% | X* (Mean or standard deviation are negative but not significantly different from the control to be a growth promoter) |  | 
39 | CCc1nc2ccccc2n1CC(O)COc1cc(C)ccc1Cl (stereo not drawn) [MMV676449] | 46% | 37% |  | 
40 | CCCCOC(=O)Nc1cc2[nH]c(C3CCCCC3)nc2cc1N1CCCC1 [MMV687730] | 24% | 61% |  | 
41 | CC[C@@H]([C@H](C)O)n1ncn(-c2ccc(N3CCN(c4ccc(OC[C@@H]5CO[C@@](Cn6cncn6)(c6ccc(F)cc6F)C5)cc4)CC3)cc2)c1=O [MMV688774] | X* (Mean or standard deviation are negative but not significantly different from the control to be a growth promoter) | 90% |  | 
42 | O=C1O[C@@H](CO)CN1c1cc(F)c(C2=CCN(Cc3ccccc3)CC2)c(F)c1 [MMV687729] | 25% | 74% |  | 
43 | COc1ccc(C2(C(=O)Nc3ccc(Br)cc3)CCCC2)cc1 [MMV200748] | 29% | X* (Mean or standard deviation are negative but not significantly different from the control to be a growth promoter) |  | 
44 | CC(C)(C)OC(=O)N1CCN(c2cc(-c3ccc(Oc4ccccc4)cc3)n[nH]2)CC1 [MMV676057] | 52% | X* (Mean or standard deviation are negative but not significantly different from the control to be a growth promoter) |  | 
